These results are taken from patent publication EP1105728B1, “MODULATING MULTIPLE LINEAGE KINASE PROTEINS” (CEPHALON, INC., priority 1998, dated 2000).

Each structure is given as a SMILES string. A value given as a limit tells only on which side of the number the result lay.

The subject of experiment [1] is dorsal root ganglion sensory neurons (DRG). Put plainly: Survival of chick embryonic dorsal root ganglion sensory neurons. The format is cell-based. As for the experimental part: (§1) Paravertebral sympathetic ganglia (SG; embryonal day 12 (E12)), dorsal root ganglia (DRG;E9), and ciliary ganglia (CG;E8) were dissected from chick embryos at the indicated embryonic day as described in Lindsay, et al., Dev. Biol., 1985, 112, 319-328, which is incorporated herein by reference in its entirety. After trypsinization and dissociation, the nerve cell suspensions were plated onto polyomithine-laminin-coated culture dishes in Ham's F14 culture medium, supplemented with 10% horse serum. Immediately after plating, survival factors were added at the following concentrations: Nerve growth factor (NGF), 20 ng/ml; ciliary neutrophic factor (CNTF), 10 ng/ml. The cultures were maintained at 37° and 5% CO2 in a humidified environment.
(§2) Neurons were plated in 35 mm culture dishes with grids (Nunc). […] Cell survival was confirmed by vital staining with trypan blue (not shown).

For experiment [2], the system named is ciliary ganglion (CG) neurons. Briefly: Survival of chick embryonic ciliary ganglion neurons. The class given is cell-based. As for the experimental part:
as §1, §2

The subject of experiment [3] is intact embryonic dorsal root ganglia. Briefly: Neurite outgrowth from intact dorsal root ganglia. As to conditions: 250 nM Compound III-3 or 20 ng/ml NGF; 48 h. The format is cell-based, chick. As for the experimental part:
Ganglia were placed in 96 well plates previously coated with poly-1-omithine and laminin (5 µg each/ml phosphate buffered saline) in serum-free N2 medium (Bottenstein, et al., Proc. Natl. Acad. Sci. USA, 1979, 76, 514-517, which is incorporated herein by reference in its entirety) containing 0.05% bovine serum albumin (BSA) and maintained for 48 h at 37° and 5% CO2 in a humidified environment. Treated ganglia received either 250 nM Compound III-3 or 20 ng/ml NGF 2 h after plating.

Experiment [4] has as its system lumbar motor neurons. Briefly: Developmentally regulated motor neuronal death in the chick embryo. The class given is in vivo. The text has this: The present example is described in detail in Glicksman, et al., J. Neurobiol., 1998, 35, 361-370, which is incorporated herein by reference in its entirety. On E6, a window in the shell of chick eggs (Spafas, Preston, CT) was made and either vehicle (5% Solutol ™ HS 15, polyethylene glycol 660 hydroxysterate; BASF Aktiengesellschaft, Ludwigshafen, Germany (in phosphate-buffered saline, pH 7.2)) or the specified dose of Compound III-3 in the vehicle was applied directly onto the vascularized chorioallantoic membrane-once daily from E6 to E9 as described in Oppenheim, et al., Science, 1991, 251, 1616-1617, which is incorporated herein by reference in its entirety). Embryos were sacrificed at E10 and their spinal cords were removed, fixed in Carnoy's solution (10% glacial acetic acid, 60% absolute ethanol, 30% chloroform), processed for serial paraffin sections, and stained with thionin. Every 20th section of lumbar segments 1-8 was counted according to previously described criteria (Clarke, et al., Methods In Cell Biology: Cell Death, 1995, Schwart & Osborne, Eds., Academic Press, New York, pp.277-321, which is incorporated herein by reference in its entirety).

The test system of experiment [5] is MKK4. Put plainly: MPTP model: phosphorylated MKK4 in the substantia nigra (immunoblot, ELISA). The format is in vivo, mice. Conditions: pretreatment; Compound III-3 1 mg/kg (Fig. 22c). As for the experimental part: MPTP was administered at a dose (40 mg/kg) that produces loss of striatal dopaminergic terminals and cell bodies in the substantia nigra. Tyrosine hydroxylase was used as a marker for dopamenergic nerve terminals in the substantia nigra. […] Since Compound III-3 is a known inhibitor of MLK3, activation of a downstream substrate of MLK3 was measured in MPTP- treated mice. Levels of phosphorylated MKK4 were measured using a phospho-MKK4 specific antibody (New England Biolabs, Beverly, MA) that recognizes the monophosphorylated form of MKK4 by either immunoblot (Fig. 22b) or ELISA (Fig. 22c). MPTP administration elevated levels of phosphorylated MKK4 in the substantia nigra by up to 5 fold over control levels (Fig. 22b). Peak elevations occurred 4 hrs after administration ofMPTP and coincided with peak CNS levels of MPP^+.

Experiment [6] deals with JNK. Put plainly: JNK activity immunoprecipitated from THP-1 cells. The class given is cell-based. Conditions: Homo sapiens, read-out: THP-1 Cells JNK % inh. 500 nM. As for the experimental part:
Assays for JNK activity were performed after immunoprecipitating the JNK protein from an extract of lysed THP-1 cells. Pelleted THP-1 cells were lysed on ice for 15 min in 500 µl of Frac buffer (10 mM Tris-Hcl, pH 7.5,50 mM NaCl, 30 µM sodium pyrophosphate, 1 mg/ml BSA, 1% Triton-X-100). The extract was centrifuged for 10 min at 14K and 5 µl of JNK antibody (Santa Cruz) was added to the supernatant. The extract was rotated for 60 min at 4°C, 75 µl of washed protein A Sepharose (20% w/v in Frac) added and the extract rotated another 30 min to bind the antibody complex to the protein A Sepharose. The protein A Sepharose was washed twice with Frac buffer, once with 20 mM Hepes, pH 7.6, 20 mM MgCl2, 2 mM DTT, then incubated for 15 min at 30° C in 30 µl of kinase buffer (20 mM hepes, 20 mM MgCl2, 2 MM DTT, 1 µg recombinant c-jun, and 2 µM ATP-γ-^32P, 2 µCi. The reaction was terminated by the addition of 10 µl of 4X SDS gel loading buffer, heated for 3 min at 80° C, and the proteins were analyzed on a 10% SDS gel. The gel was dried, exposed to a Phosphorimager plate, and the radioactive bands were analyzed on a Phosphorimager.

In experiment [7] the test system is IL-2. Briefly: Induction of IL-2 in Jurkat cells by anti CD3 and anti CD28 antibodies (ELISA). The format is cell-based. As to conditions: Homo sapiens. As for the experimental part: Jurkat cells were grown in RPMI 1640 medium supplemented with 10% fetal bovine serum. TNF-α was from Promega and anti CD3 and anti CD28 antibodies were from Pharmigen. Jurkat experiments were done in 200 µl in a 96 well plate. IL-2 was measured with an ELISA kit purchased from Boehringer Mannheim. The antibodies to CD3 and CD28 were allowed to bind to the plastic of the 96 well plate (18 hr in PBS) prior to addition of the Jurkat Cells. Cells were treated with compounds 1 hr prior to adding to the antibody coated plate. Antibodies to CD3 and CD28 were used to activate the T cell receptor and induce IL-2. I1-2 was released from the Jurkat cells between 6 hr and 24 hr after initiation of induction (Fig. 23A). No IL-2 was made constitutively (Fig. 23A CNT). The effect of Compound III-3 (1 hr treatment with Compound III-3 prior to induction) on IL-2 induction was next assessed (Fig. 23B). A Compound III-3 concentration of 500 nM inhibited IL-2 induction by greater than 80% (Fig. 23B).
(An ELISA detects its analyte on a solid surface through an enzyme-linked reagent.)

One may read the IC50 as the concentration that inhibits the measured activity by half. Lower therefore signals higher potency.

As to `CCSCc1ccc2c(c1)c1c3c(c4c5cc(CSCC)ccc5n5c4c1n2C1CC(O)(C(=O)OC)C5(C)O1)CNC3=O` (stereo not drawn) [III-3], the “concentration at which the survival effect reached a plateau” value in experiment [1] (10% serum (Fig. 16)) and in experiment [2] (10% serum (Fig. 16)) was “around 1 µM” in each case. In experiment [1] (after four days), this compound showed a DRG survival of 52%. The “survival of CNTF-dependent ciliary ganglion (CG) neurons” value in experiment [2] (after 24 h, CNTF 10 ng/ml, 10% serum) came to 76%. The same compound came in with a CG survival in experiment [2] (after four days) of 58%. For the same compound, in experiment [3], the “neurite outgrowth from intact dorsal root ganglia” value is given as “Neurites grew”. Besides, the motor neurons rescued in experiment [4] (1.2 and 1.8 µg/day onto the chorioallantoic membrane) is listed as 25%. In experiment [4] (2.3 and 7 µg/day onto the chorioallantoic membrane), the “motor neurons that would normally die rescued” value is listed as “Forty”. In experiment [5], the “MPTP-mediated MKK4 phosphorylation” value is listed as “partially inhibited”. Besides, the inhibition at 0.5 µM was 93% in experiment [6] and above 80% in experiment [7] (Jurkat, 500 nM, 1 hr treatment prior to induction (Fig. 23B)). The same compound registered a half-maximal inhibitory concentration (IC50) in experiment [7] (Jurkat cells (Fig. 23C)) of 139 nM.
